Assay results as given in US9732091B2, “Tryptophanol-derived oxazoloisoindolinones: small-molecule P53 activators” (UNIVERSIDADE DO PORTO, priority 2013, dated 2017).

What was measured:
HCT116 p53^−/− = assay: SRB growth inhibition assay in HCT116 p53^−/− colon carcinoma cells; type: cell-based, human; details: 48 hours incubation, mean±S.E.M.
Experimental: (§1) Tumor cells were plated at 5.0×10^3 cells/well in 96-well plates and incubated for 24 hours. Cells were then exposed to serial dilutions of SLMP53-1, CP-31398 or PRIMA-1 (from 1.85 to 150 μM). The effect of the compounds was analyzed following 48 hours incubation, using the sulforhodamine B (SRB) assay. The solvent DMSO corresponding to the maximum concentration used in these assays (0.025%) was included as control. The GI50 value, the concentration of compound that causes 50% growth inhibition, was calculated for the tested compounds. Results are the mean±S.E.M. of three independent experiments.

HCT116 p53^+/+ cells [1] = assay: cell cycle analysis by flow cytometry (propidium iodide), HCT116 p53^+/+; type: cell-based, human; details: double GI50, 24 hours
Experimental: FIG. 3 illustrates the effect of SLMP53-1 on cell cycle progression of HCT116 p53^+/+ cells. Cell cycle phases were analyzed by flow cytometry using propidium iodide and quantified using ModFit LT software (Verity Software House Inc., Topsham, USA). Effect of compounds (double GI50) was analyzed after 24 hours treatment. Histograms represent one of two independent experiments; quantification of cell cycle phases represents the mean±S.E.M. of two independent experiments.

HCT116 p53^+/+ = assay: SRB growth inhibition assay in HCT116 p53^+/+ colon carcinoma cells; type: cell-based, human; details: for GI50: HCT116 p53^+/+, 48 hours incubation, SRB, mean±S.E.M.
Experimental: as §1

[2] = Rippin et al. 2002; Jonhson et al. 2011; cited from earlier work
HCT116 p53^+/+ cells [3] = assay: apoptosis by flow cytometry (FITC-Annexin V and propidium iodide), HCT116 p53^+/+; type: cell-based, human; details: GI50 and double GI50, 24 hours
Experimental: (§2) Apoptosis was analyzed by flow cytometry using FITC-Annexin V and propidium iodide. The effect of compounds was analyzed after 24 hours treatment using the concentration of GI50 and double GI50. Histograms represent one of two independent experiments; quantification of cells in apoptosis represents the mean±S.E.M. of two independent experiments.

MDA-MB-231 (p53R280K) = assay: SRB growth inhibition assay in MDA-MB-231 breast cancer cells; type: cell-based, human; details: 48 hours incubation, mean±S.E.M.
Experimental: as §1, with “7.5×10^3” for “5.0×10^3”, “incubation period,” for “incubation,”, “value, which is” for “value,”

MDA-MB-231 cells = assay: apoptosis by flow cytometry (FITC-Annexin V and propidium iodide), MDA-MB-231; type: cell-based, human; details: GI50, 24 hours
Experimental: as §2, with “of” for “of GI50 and double”

human wt p53 = biological target: T1, human wt p53 (Homo sapiens, UniProt P04637); assay: yeast-based assay, yeast cells expressing human wt p53 (growth by CFU counts, cell cycle, actin Western blot)
T1 construct: expressed in transfected cells
T1 sequence (P04637 whole entry): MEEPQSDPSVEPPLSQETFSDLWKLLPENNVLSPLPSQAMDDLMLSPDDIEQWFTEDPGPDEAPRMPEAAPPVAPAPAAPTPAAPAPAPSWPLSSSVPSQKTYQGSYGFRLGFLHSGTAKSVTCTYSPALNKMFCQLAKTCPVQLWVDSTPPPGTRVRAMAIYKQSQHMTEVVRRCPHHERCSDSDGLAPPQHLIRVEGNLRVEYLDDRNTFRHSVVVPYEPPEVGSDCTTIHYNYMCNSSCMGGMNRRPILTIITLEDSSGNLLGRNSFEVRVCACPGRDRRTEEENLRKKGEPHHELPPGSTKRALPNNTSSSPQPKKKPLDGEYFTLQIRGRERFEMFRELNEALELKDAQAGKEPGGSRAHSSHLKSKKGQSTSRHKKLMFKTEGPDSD
Experimental: FIG. 1 illustrates that SLMP53-1 and SLMP53-2 increase the p53 effects in yeast. Yeast cells expressing human wt p53 and transformed with the empty vector (control yeast) were incubated in selective induction medium in the presence of 0.1-25 μM compound or DMSO only, for 42 hours. (A) Effect of 10 μM SLMP53-1 and SLMP53-2 on the p53-induced yeast growth inhibition. Results are plotted setting as one unit the p53-induced growth inhibition in the presence of DMSO only. Growth was estimated by colony-forming unit (CFU) counts. […] (B) Dose-response curve for SLMP53-1 in yeast cells expressing human p53 and control yeast. Cells were incubated in selective medium with 0.1-25 μM of SLMP53-1 or DMSO only. Results are plotted setting as 100% growth inhibition the number of CFU obtained in the presence of DMSO only. Data are mean±S.E.M. of three independent experiments (*P<0.05; unpaired Student's t-test). (C) Effect of SLMP53-1 and SLMP53-2 on p53-induced S-phase cell cycle arrest in yeast. Cell cycle phases were analyzed by flow cytometry using Sytox Green and quantified using ModFit LT software; quantification of cell cycle phases represent the mean values. (D) Increase of p53-induced actin protein expression levels by SLMP53-1 and SLMP53-2 in yeast expressing p53. Western Blot band intensity was quantified using Pgk1p as loading control (with Bio-Profile Bio-1D++ software).
Using a yeast-based screening approach, the chiral compounds SLMP53-1 and SLMP53-2 were identified as potential activators of wt p53, from a chemical library of tryptophanol-derived oxazoloisoindolinones with general formula (I) shown in FIG. 1, wherein X, R^1, R^2, R^3, R^4, R^5, R^6, R^7, R^8, R^9 and R^10 are as defined herein, as well as their stereoisomers, enantiomers, ra.cemates, tautomers thereof or mixtures thereof; or a pharmaceutically acceptable salt, solvate or prodrug thereof. In the yeast cell model, compounds SLMP53-1 and SLMP53-2 increased the previously reported (Coutinho et al. FEBS Lett. 2009, 583, 3582-3588) p53-induced growth inhibition (FIGS. 1A and B) and S-phase cell cycle arrest (FIG. 1C).

[4] = HCT116 p53^+/+ vs HCT116 p53^−/−

| Compound | GI50 (HCT116 p53^−/−) | cell cycle progression (HCT116 p53^+/+ cells [1]) | GI50 in HCT116 p53^+/+ cells lower than in HCT116 p53^−/− cells (HCT116 p53^+/+; [4]) | p53 dependence of anti-proliferative effect (HCT116 p53^+/+; [4]) | GI50 (HCT116 p53^+/+) | cytotoxic and genotoxic effects (reported) [2] | apoptosis (HCT116 p53^+/+ cells [3]) | GI50 (MDA-MB-231 (p53R280K)) | apoptosis (MDA-MB-231 cells) | p53-induced growth inhibition (human wt p53; yeast expressing human wt p53, 10 μM, 42 hours, vs DMSO only) | p53-induced S-phase cell cycle arrest (human wt p53; yeast expressing human wt p53, flow cytometry) | actin protein levels (human wt p53; yeast expressing p53, Western blot, vs DMSO only) |
| --- | --- | --- | --- | --- | --- | --- | --- | --- | --- | --- | --- | --- |
| COc1ccc(/C=C/c2nc(NCCCN(C)C)c3ccccc3n2)cc1 [CP-31398] | 7.3 ± 0.6 µM | G0/G1-phase cell arrest | 2 fold | p53-dependent anti-proliferative effect | 3.4 ± 0.1 µM | cytotoxic and genotoxic effects have been reported | apoptotic cell death | 2.3 ± 0.9 µM | apoptotic cell death | – | – | – |
| O=C1C2CCN(CC2)C1(CO)CO [PRIMA-1] | 13.1 ± 2 µM | – | – | p53-independent | 19.9 ± 4 µM | – | – | 29.8 ± 3.1 µM | apoptotic cell death | – | – | – |
| C[C@@]12OC[C@@H](Cc3c[nH]c4ccccc34)N1C(=O)c1ccccc12 [SLMP53-2] | – | – | – | – | – | – | – | – | – | increased | increased | increased the actin protein levels |
